Among the data in BindingDB's records for PubMed 31761384 (China Pharmaceutical University, 2020) are EC50 values, retold here.

Bridge positions count the residues as written; N and C are the ends. Peptide text beside a SMILES is read from it.

A short description of this test: Inhibition of human PD-1 expressed in rat PBMCs/human PD-L1 expressed in MDA-MB-231 cells protein-protein interaction assessed as increase in PBMCs proliferation.

With `CC[C@H](C)[C@@H]1NC(=O)[C@H](CC(C)C)NC(=O)[C@H](Cc2ccccc2)NC(=O)CSC[C@@H](C(=O)NCC(N)=O)NC(=O)[C@H](CCCNC(=N)N)NC(=O)[C@H](Cc2ccccc2)NC(=O)[C@H](C(C)C)NC(=O)[C@H](CCCNC(=N)N)NC(=O)[C@H](CC(=O)O)NC(=O)[C@H](CCCNC(=N)N)NC(=O)[C@H]([C@@H](C)CC)NC(=O)[C@H](C(C)C)NC1=O` ({CH2CO}-FLIVIRDRVFRCG-NH2; thioether N-12), the EC50 stood at 0.41 nM.

Usually EC50 stands for the midpoint of the concentration-response curve.
